Here are results for one compound from publication PMC8395219, “Comparative Analysis of Single-Molecule Dynamics of TRPV1 and TRPV4 Channels in Living Cells” (International Journal of Molecular Sciences, 2021).

This test concerns the target T1, TRPV4 (Homo sapiens, UniProt Q9HBA0).
T1 construct: HaloTag fused to the N-terminus of human TRPV4, expressed in TRPV4-KO HEK293 cells
In words: FLIPR calcium mobilization assay in transfected TRPV4-KO HEK293 cells (agonist dose-response). It is filed as cell-based. On the technique in general: Calcium assays in cells follow changes in intracellular calcium, usually with a dye or a luminescent sensor.

T1 sequence (Q9HBA0 whole entry, the tested form may be a part): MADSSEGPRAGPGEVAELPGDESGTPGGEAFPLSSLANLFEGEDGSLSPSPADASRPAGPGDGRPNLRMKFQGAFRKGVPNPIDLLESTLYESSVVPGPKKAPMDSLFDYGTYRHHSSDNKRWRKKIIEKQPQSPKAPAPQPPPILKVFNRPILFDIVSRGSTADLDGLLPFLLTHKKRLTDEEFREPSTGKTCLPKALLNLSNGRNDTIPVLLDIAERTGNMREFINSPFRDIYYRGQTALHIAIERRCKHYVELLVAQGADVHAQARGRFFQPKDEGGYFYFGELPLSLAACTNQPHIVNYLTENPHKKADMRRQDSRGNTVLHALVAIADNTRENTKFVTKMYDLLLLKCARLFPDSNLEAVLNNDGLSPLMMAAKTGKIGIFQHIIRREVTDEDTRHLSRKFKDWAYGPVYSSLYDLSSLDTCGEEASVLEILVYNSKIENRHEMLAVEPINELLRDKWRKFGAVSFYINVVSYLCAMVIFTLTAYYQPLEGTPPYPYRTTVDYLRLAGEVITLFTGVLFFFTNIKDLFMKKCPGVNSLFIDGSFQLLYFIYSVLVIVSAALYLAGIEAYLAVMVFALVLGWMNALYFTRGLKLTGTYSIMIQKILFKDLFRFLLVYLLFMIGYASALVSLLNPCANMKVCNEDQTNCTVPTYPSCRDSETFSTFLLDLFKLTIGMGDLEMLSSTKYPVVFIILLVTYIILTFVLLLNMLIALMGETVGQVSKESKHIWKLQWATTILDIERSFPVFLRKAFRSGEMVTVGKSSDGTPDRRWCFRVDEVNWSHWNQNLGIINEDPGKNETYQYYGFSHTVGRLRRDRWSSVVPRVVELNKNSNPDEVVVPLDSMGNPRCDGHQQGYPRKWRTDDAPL

For orientation: EC50 means the concentration giving half of the maximal effect. For the compound `CC(C)C[C@H](NC(=O)c1cc2ccccc2s1)C(=O)N1CCN(C(=O)[C@H](CO)NS(=O)(=O)c2ccc(Cl)cc2Cl)CC1` [GSK1016790A, N-((1S)-1-{[4-((2S)-2-{[(2,4-dichlorophenyl)sulfonyl]amino}-3-hydroxypropanoyl)-1-piperazinyl]carbonyl}-3-methylbutyl)-1-benzothiophene-2-carboxamide], the EC50 amounted to 26 nM.
